Experiments:
Type in all cases: cell-based, human
HSPCs = experiment: CFSE proliferation assay of HSPCs on DL4+VCAM-1
Description: To track the number of cell divisions, cells were stained with 2.5 μM CellTrace™ CFSE (ThermoFisher) in PBS and incubated at 37° C. for 8 minutes. CFSE was quenched by adding 5 times the volume of IMDM+BIT and incubating at 37° C. for 5 minutes. Cells were then resuspended in fresh media and seeded on DL4+VCAM-1 for culture. For analysis, cells were collected and stained for CD34, CD7, and CD5 surface markers as described above and analyzed using flow cytometry. Proliferation was modelled using FlowJo™ software and further analysis was performed with R.
To track the number of cell divisions in response to each of IL-3 and TNFα, the HSPCs were first stained with carboxyfluorescein succinimidyl ester (CFSE). IL-3 or TNFα were added on day 0 and the number of divisions of each cell was analyzed on days 2, 3, 4 and 5.

CD34+ HSPCs [1] = experiment: γ-secretase inhibitor (GSI) titration, 14-day culture on DL4+VCAM-1; conditions: increasing concentrations of GSI; 14 days
Description: (§1) For experiments 7 days or longer, HSPCs were seeded at 63-125 cells/mm^2 (equivalent to 2000-4000 cells/well of a 96-well plate) on DL4+VCAM-1-coated surfaces. Experiments shorter than 7 days (CFSE and qPCR) were seeded at 470-780 cells/mm^2 (equivalent to 15,000-25,000 cells/well of a 96-well plate) to provide enough cells for analysis. Cells were cultured in 100 μl/well (32 μl/well for 384-well plate) of Iscove's Modified Eagle Medium (IMDM) supplemented with 20% bovine serum albumin, insulin, and transferrin (BIT 9500) serum substitute (Stemcell Technologies), 1 μg/ml low-density lipoprotein (LDL; Stemcell Technologies), 60 μM ascorbic acid (Sigma), 24 μM 2-mercaptoethanol (Sigma), and 1% penicillin-streptomycin (P/S; Invitrogen). The cytokines used in control condition were SCF, FLT3L, TPO, and IL-7 (also known as the “4F cytokines”, all of which were obtained from R&D Systems), each at a concentration of 20 ng/ml or 100 ng/ml as indicated in the text. All other cytokines were purchased from R&D Systems and used in the combinations and concentrations indicated in the text. For certain experiments, the γ-secretase inhibitor (2S)-N-[(3,5-Difluorophenyl)acetyl]-L-alanyl-2-phenyl] glycine 1,1-dimethylethyl ester (DAPT) or dimethyl sulfoxide (DMSO) was added to media at the concentrations indicated in the text. […]

CD34+ HSPCs [2] = experiment: Timed addition of TNFα (day 0, 1, 2 or 3), 7-day culture on DL4+VCAM-1; conditions: late addition of TNFα; day 7
Description: as §1

[3] = tested on: Notch target genes in CD34+ HSPCs (CD38lo/− and CD38+ fractions); experiment: qRT-PCR of Notch target and pro-myeloid genes after 5 days of culture
Description: Umbilical cord blood (UCB) was collected from consenting donors at Mount Sinai Hospital, Toronto, Ontario, in accordance with institutional research ethics board policies. Mononuclear cells were fractioned via centrifugation using Lympholyte cell separation media (Cedarlane) and red blood cells were lysed using ammonium-chloride-potassium (ACK) lysing buffer prepared in-house. Mononuclear cells were enriched for >90% CD34+ cells using EasySep™ Human CD34+ Positive Selection Kit (Stemcell Technologies) according to the manufacturer's instructions. For certain experiments, enriched CD34+ cells were stained with CD34-APC and CD38-PE antibodies and sorted into CD34+CD38lo/− and CD34+CD38+ fractions using FACS Aria flow cytometer ([…]).
Cells were lysed and RNA isolated using the PureLink™ RNA Micro Kit (Invitrogen) according to the manufacturer's protocol. cDNA was reverse-transcribed from RNA using SuperScript™ III Reverse Transcriptase (Invitrogen) according to the manufacturer's protocol. cDNA was amplified with primers and FastStart SYBR Green Mastermix (Roche) using QuantStudio™ 6 Flex (Applied Biosystems). Relative expression of individual genes was calculated by the delta cycle threshold (ΔCt) method and normalization using β-actin to control for differences in input cDNA.
TNFα activates the NF-KB pathway, which may regulate Notch target genes or regulate Notch itself (FIG. 3a). To investigate if and how TNFα interacts with Notch, CD34+ HSPCs were first sorted into CD38lo/− and CD38+ fractions, and seeded separately on DL4+VCAM-1 with and without TNFα. Gene expression was measured using qPCR after 5 days of culture (FIG. 3b).

CD34+ HSPCs [4] = experiment: Surface expression of CD117, CD123 and CD127 after 24 hours of TNFα stimulation; conditions: TNFα stimulation for 24 hours
Description: Prior to analysis via flow cytometry, adherent cells were collected from DL4+VCAM-1 surfaces using vigorous pipetting or TrypLE Express Enzyme (ThermoFisher) for 5 minutes at 37° C. Afterwards, cells were rinsed twice with Hanks Balanced Salt Solution (ThermoFisher) plus 2% FBS (HF). Surface antibodies were stained at 1:100-1:300 in HF at room temperature for 15 minutes. Cells were then rinsed once with HF and resuspended in HF with 1:1000 7-AAD to exclude dead cells. Data was acquired with a BD Fortessa™ and compensation and gating was performed with FlowJo™ software and further analysis with the R programming language (version 3.3.2).
Next, the expression of CD117 (c-kit; SCF receptor), CD123 (IL-3 receptor) and CD127 (IL-7 receptor) on CD34+ HSPCs was evaluated in the presence or absence of TNFα stimulation for 24 hours.

[5] = both CD38lo/− and CD38+ fractions, normalized to β-actin

TNFα was tested, and the “proportion of proT2 (CD34+CD7+CD5+) cells” value (HSPCs; day 5) was “higher proportion of proT2 cells”, the “upregulation of CD7” value (HSPCs; days 2-5) was “slow to upregulate CD7” and the “CD7+CD5+ proT cell generation under Notch inhibition” value (CD34+ HSPCs [1]) was “capable of maintaining CD7+CD5+ proT cell generation with a higher concentration of GSI than the control condition”. For the same substance, the “CD7+ lymphoid cells” value (CD34+ HSPCs [2]) was “decrease in CD7+ lymphoid cells”, the “CD14/33+ myeloid lineage cells” value (CD34+ HSPCs [2]) was “increase in CD14/33+ myeloid lineage cells” and the “expression of any other Notch target genes or NOTCH1 itself” value [3] was “No significant differences”. The SPI1 expression ([3]; CD38lo/− but not CD38+ HSPCs) was “downregulated SPI1 slightly”, the GATA3 expression [3, 5] was “upregulated” and the TCF7 expression [3, 5] was “upregulated”. The BCL11b expression ([3]; only CD38lo/− HSPCs) was “upregulated”, the CEBPA expression ([3]; only the CD38+ fraction) was “significantly downregulated” and the “frequency of CD123+ cells” value (CD34+ HSPCs [4]) was “significant increase”. For the same substance, the “median fluorescent intensity (MFI) of CD123” value (CD34+ HSPCs [4]) was “increase in the median fluorescent intensity”.
